Series [1] has as its target T1, PRMT1 (Homo sapiens, UniProt Q99873).
T1 construct: 2-371
Briefly: Histone methyltransferase enzymatic assay, PRMT1. The format is biochemical. The note with it: enzyme conc. 100 nM. As for the experimental part: (§1) Histone methyltransferase assays were performed in 96-well half-area optiplates (PerkinElmer) at room temperature. All concentrations are final unless noted otherwise. Compounds were serially diluted in DMSO and the final DMSO concentration was 1%. A 24 μL reaction mixture contained compound, enzyme, 200 nM of nucleosome or histone substrate, 400 nM ^3H-SAM (83.1 Ci/mmol), 50 mM Tris-HCl (pH 8.0), 50 mM NaCl, 5 mM MgCl2, 1 mM DTT, and 0.01% Tween-20. The plate was sealed, mixed on a Titramax plate shaker at 1200 rpm for 30 sec, and incubated at room temperature for 60 min. The reaction was quenched by addition of 24 μL mixture containing 5 mg/mL PVT-PEI beads and 300 μM unlabeled SAM in water. The plate was sealed, mixed as previously noted, incubated overnight, and read on a TopCount plate reader (PerkinElmer).
(§2) Data was analyzed using GraphPad Prism 6.0 (La Jolla, CA). […] IC50 values were calculated as an average of at least two independent experiments.

In series [2] the target is T2, NSD1 (Homo sapiens, UniProt Q96L73).
T2 construct: 1538-2696; purchased RBC (read as Reaction Biology Corporation, named)
Briefly: Histone methyltransferase enzymatic assay, NSD1. The note with it: enzyme conc. 50 nM. It is filed as biochemical. As for the experimental part: as §1, §2

Series [3] deals with KDM3A (Homo sapiens, UniProt Q9Y4C1). Briefly: KDM3A enzymatic assay (AlphaLISA). It is filed as biochemical. As for the experimental part:
(§3) The following assay protocol was used for all histone demethylases tested except KDM1A, KDM5A, B, and D, which are described below. Compounds were serially diluted into a 384-well Alpha plate as a DMSO solution and mixed with 5 μL reaction buffer (buffer A) containing 50 mM HEPES (pH 7.0), 0.1% BSA, and 0.003% Tween-20. The enzyme of interest was pre-incubated with 15 μM of Fe^2+ for 10 min (except 30 min for KDM2B) in reaction buffer A. 5 μL of the enzyme mixture was added to each of the compound-containing wells and incubated for 10 min. The reaction was started by addition of a 5 μL mixture containing 300 nM peptide substrate, 75 μM L-ascorbic acid, and 30 μM α-ketoglutarate in buffer A. This final 15 μL of reaction mixture was incubated for 20 min for KDM5B and 1 hour for the other KDM enzymes. The reaction was quenched with 10 μL of diluted AlphaLISA Acceptor beads (1:400) in Epigenetics Buffer and incubated for 60 min. The Donor beads were diluted 1:400 into Epigenetics Buffer in the dark and 10 μL of this was added to each well and incubated for another 60 min in the dark. The assay plates were read on an Enspire plate reader (PerkinElmer) using a standard AlphaLISA program.
as §2
(In general: In Alpha technology, singlet oxygen from a donor bead excites a nearby acceptor bead.)

The target of series [4] is T3, DOT1L (Homo sapiens, UniProt Q8TEK3).
T3 construct: 1-416; BRIC
Briefly: Histone methyltransferase enzymatic assay, DOT1L. The note with it: enzyme conc. 2 nM. It is filed as biochemical. Here is the method: as §1, §2

In series [5] the target is T4, KDM2B (Homo sapiens, UniProt Q8NHM5).
T4 sequence (Q8NHM5 1-1336): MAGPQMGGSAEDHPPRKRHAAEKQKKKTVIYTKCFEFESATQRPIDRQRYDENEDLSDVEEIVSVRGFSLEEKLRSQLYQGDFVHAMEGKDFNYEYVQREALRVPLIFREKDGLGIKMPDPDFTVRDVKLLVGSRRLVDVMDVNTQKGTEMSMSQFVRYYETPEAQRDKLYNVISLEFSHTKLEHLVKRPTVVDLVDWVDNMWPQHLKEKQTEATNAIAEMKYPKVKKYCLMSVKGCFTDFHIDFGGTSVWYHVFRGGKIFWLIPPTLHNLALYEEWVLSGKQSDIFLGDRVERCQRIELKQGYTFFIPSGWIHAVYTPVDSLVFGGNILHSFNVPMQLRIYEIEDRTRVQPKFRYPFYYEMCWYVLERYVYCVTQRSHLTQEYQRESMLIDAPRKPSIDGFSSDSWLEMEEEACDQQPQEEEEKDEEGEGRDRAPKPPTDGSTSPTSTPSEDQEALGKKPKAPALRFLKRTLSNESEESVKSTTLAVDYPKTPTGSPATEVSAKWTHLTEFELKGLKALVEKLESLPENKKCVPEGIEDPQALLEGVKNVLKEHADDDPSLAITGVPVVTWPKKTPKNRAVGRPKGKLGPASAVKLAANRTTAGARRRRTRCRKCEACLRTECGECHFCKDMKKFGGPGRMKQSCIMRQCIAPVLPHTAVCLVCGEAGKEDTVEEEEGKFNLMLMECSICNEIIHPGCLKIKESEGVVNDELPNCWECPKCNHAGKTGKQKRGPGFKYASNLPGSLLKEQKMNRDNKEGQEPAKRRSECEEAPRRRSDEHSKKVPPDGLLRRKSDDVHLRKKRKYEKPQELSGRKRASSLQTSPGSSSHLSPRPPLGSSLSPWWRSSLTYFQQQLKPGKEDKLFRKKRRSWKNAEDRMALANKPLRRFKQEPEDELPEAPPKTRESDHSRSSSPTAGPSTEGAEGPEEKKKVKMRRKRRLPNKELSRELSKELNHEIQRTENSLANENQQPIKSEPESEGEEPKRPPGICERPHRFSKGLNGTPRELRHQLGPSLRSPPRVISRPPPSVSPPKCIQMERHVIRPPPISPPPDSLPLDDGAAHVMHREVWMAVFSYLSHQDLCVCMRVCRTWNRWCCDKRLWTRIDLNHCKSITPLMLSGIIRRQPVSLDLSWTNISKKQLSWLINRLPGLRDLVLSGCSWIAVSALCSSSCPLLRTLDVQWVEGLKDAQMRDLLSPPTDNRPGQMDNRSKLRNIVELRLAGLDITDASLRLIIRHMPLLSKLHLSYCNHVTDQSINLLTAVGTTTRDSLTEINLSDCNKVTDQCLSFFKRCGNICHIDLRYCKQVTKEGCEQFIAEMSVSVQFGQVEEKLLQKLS
Briefly: KDM2B enzymatic assay (AlphaLISA). The format is biochemical. As for the experimental part:
as §3, §2

The nature of series [6]: Tolerability in rats. The format is in vivo. The note with it: GS-5801 doses tested (0.3-30 mg/kg p.o. once daily for five days).
Method: Animals were sacrificed 24 hours post final dose and approximately 100 mg of liver (left lateral lobe), lung, and kidney tissue was collected. Additionally, one mL of venous blood for PBMC isolation was collected into K2EDTA vacutainer tubes (Thermo Fisher; BD367835). […] Diluted whole blood was layered onto an equal volume of HISTOPAQUE-1077 (Sigma; 10771) gradient medium and centrifuged at 400 x g for 30 minutes with the centrifuge brake switch off. PBMCs were collected at the plasma-HISTOPAQUE-1077 interface and washed three times with DPBS by centrifugation at 500 x g for 10 minutes. Tissue samples and PBMCs were snap frozen using liquid nitrogen and stored at -80°C for subsequent H3K4me3:H3 analysis by ELISA.

Two compounds from PMC9728921, “Characterization of a KDM5 small molecule inhibitor with antiviral activity against hepatitis B virus” (PLOS ONE, 2022) can be followed below.

pIC50: −log10 of the molar value.

Chain of KDM3A (Q9Y4C1 whole entry): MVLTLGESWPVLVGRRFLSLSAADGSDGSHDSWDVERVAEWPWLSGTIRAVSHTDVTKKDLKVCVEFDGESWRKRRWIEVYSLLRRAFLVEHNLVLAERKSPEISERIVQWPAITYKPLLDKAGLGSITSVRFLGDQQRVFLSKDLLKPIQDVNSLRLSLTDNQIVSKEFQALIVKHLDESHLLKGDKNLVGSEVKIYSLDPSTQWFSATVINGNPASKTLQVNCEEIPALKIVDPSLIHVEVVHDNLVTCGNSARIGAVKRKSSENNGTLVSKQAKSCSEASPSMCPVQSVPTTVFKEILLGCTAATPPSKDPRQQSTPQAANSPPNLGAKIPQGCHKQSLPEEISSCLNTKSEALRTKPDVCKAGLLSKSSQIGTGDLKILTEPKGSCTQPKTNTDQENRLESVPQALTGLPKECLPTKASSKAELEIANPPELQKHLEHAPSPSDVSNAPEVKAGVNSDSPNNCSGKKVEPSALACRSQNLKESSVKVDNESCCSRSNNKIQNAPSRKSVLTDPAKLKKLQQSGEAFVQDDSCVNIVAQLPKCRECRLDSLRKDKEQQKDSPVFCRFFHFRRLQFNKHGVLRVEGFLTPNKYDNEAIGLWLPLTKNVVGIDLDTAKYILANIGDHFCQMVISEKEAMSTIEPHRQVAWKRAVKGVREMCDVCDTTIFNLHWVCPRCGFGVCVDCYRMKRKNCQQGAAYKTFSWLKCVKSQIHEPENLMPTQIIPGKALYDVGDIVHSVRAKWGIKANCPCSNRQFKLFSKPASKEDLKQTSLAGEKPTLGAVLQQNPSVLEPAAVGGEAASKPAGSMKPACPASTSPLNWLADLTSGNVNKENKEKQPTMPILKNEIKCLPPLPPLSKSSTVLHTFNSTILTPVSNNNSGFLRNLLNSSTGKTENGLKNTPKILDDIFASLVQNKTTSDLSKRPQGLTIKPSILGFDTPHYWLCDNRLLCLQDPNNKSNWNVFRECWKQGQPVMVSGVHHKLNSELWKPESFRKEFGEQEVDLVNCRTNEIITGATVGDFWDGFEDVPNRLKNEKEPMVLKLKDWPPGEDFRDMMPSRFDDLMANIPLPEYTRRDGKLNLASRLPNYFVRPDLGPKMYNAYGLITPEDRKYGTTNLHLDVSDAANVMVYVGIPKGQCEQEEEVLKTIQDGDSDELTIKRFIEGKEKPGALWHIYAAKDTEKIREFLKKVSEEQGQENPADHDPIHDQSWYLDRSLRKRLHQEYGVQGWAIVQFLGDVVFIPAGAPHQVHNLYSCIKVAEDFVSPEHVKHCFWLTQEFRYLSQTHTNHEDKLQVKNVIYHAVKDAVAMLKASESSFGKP
T1 sequence (Q99873 2-371): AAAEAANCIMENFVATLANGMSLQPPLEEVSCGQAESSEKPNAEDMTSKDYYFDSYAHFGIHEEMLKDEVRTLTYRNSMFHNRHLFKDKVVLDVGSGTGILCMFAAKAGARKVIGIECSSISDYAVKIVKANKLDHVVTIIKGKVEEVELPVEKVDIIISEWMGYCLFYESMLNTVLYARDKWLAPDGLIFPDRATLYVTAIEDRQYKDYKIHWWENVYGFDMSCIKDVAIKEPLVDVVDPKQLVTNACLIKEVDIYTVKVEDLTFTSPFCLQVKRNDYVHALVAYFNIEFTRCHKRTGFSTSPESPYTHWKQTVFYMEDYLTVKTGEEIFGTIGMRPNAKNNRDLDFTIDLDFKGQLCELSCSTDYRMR
T2 sequence (Q96L73 1538-2696): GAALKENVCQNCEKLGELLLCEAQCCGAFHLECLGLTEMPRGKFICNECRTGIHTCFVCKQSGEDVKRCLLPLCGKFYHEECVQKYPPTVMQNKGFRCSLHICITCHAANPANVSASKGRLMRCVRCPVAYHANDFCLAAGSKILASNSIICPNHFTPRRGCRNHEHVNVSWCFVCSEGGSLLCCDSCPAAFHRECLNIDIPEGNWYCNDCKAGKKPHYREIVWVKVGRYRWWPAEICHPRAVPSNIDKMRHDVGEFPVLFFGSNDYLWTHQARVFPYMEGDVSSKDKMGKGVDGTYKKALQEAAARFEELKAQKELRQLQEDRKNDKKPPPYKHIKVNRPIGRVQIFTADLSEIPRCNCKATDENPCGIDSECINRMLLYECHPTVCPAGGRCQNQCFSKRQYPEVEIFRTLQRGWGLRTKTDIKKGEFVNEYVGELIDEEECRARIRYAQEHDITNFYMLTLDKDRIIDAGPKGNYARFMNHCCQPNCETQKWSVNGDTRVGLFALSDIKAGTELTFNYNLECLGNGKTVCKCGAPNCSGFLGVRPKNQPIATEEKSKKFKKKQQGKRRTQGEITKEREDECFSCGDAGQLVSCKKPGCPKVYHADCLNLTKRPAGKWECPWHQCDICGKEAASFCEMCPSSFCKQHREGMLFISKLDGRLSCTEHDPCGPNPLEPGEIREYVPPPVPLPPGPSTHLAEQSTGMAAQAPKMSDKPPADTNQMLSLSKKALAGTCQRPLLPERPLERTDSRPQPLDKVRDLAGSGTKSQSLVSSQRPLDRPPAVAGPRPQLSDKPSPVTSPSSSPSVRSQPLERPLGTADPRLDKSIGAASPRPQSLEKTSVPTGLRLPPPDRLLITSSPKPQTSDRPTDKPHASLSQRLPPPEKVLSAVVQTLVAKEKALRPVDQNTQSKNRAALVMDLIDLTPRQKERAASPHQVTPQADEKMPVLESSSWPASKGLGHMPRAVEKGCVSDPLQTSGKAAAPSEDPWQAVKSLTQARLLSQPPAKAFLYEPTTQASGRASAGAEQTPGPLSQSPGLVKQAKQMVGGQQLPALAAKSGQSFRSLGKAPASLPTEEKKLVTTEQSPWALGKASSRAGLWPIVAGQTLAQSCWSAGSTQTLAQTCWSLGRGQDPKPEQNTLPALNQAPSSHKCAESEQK
T3 sequence (Q8TEK3 1-416): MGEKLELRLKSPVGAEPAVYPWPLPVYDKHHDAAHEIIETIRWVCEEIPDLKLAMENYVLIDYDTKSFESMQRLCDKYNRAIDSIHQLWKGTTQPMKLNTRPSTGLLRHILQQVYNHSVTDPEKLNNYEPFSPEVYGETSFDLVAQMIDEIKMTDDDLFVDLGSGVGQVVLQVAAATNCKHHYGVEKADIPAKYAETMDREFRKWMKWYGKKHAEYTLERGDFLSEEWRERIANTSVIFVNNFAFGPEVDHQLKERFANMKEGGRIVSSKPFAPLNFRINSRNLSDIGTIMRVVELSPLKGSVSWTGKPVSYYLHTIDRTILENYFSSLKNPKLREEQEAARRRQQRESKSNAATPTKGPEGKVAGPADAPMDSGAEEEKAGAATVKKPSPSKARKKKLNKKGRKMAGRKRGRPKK

In the case of `CCN(CCN(C)C)C(=O)CNCc1cc(C(=O)O)ccn1` [GS-080], the pIC50 (commonly −log10 of the IC50, conventionally taken in molar units) in series [1] is < 4.00; in series [2] it was < 4.00; in series [3] (enzyme concentration 0.3 nM), 5.77; in series [4], < 4.00; in series [5] (enzyme concentration 2 nM) it was 6.21. Besides, the “Fold Selectivity Compared to KDM5A” value was > 4,720 fold in series [3] (IC50 of KDM3A over KDM5A) and > 1,720 fold in series [5] (IC50 of KDM2B over KDM5A).

For the compound `CCOC(=O)c1ccnc(CNCC(=O)N(CC)CCN(C)C)c1` [GS-5801], the adverse effects entry in series [6] was “no adverse effects were observed”.
